Test results published in patent US20260325533A1, “CDK INHIBITOR COMPOUNDS” (ALEKSIA THERAPEUTICS, INC., priority 2023, published 2026).
Where two headings read alike, the source gives them in different places. One block for each compound: values may come before it.

Assays:
Type in all cases: biochemical
CDK6/CCND1 = CDK6/CCND1 (Homo sapiens, UniProt Q00534); test: CDK6 homogeneous time-resolved fluorescence (HTRF) kinase assay
Method in brief: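 Assay conditions: HEPES buffer containing 10 mM MgCl2, 1 mM EGTA, 2 mM DTT, 0.01% Tween 20; 1 nM CDK6/CCND1, 50 nM peptide substrate, 1 mM ATP. Detection after 60 min reaction used 2 nM europium antibody with 340 nm excitation. Potency fitted from half-log series, 11 points.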

CDK4/CCND3 = CDK4/CCND3 (Homo sapiens, UniProt P11802); test: CDK4 homogeneous time-resolved fluorescence (HTRF) kinase assay
Method in brief: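 IC50s derive from Lance 665 nm or 665/615 nm signals in 11-point, half-log dose series (top 10 μM, 1% DMSO). The enzyme, 1.5 nM CDK4/CCND3, phosphorylates 50 nM ULight-4E-BP1 peptide with 1 mM ATP over 60 min at 23 °C.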

CDK1/CCNB1 = CDK1/CCNB1 (Homo sapiens, UniProt P06493); test: CDK1 homogeneous time-resolved fluorescence (HTRF) kinase assay
Method in brief: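 Read-out: TR-FRET (Eu anti-phospho-4E-BP1 Thr37/46 antibody, 2 nM; 665 nm or 665/615 ratio) after 60 min phosphorylation of 50 nM ULight-peptide by 0.5 nM CDK1/CCNB1 at 1 mM ATP, 23 °C. Compound preincubated 20 min with enzyme; 1% DMSO.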

CDK2/CCNE1 = CDK2/CCNE1 (Homo sapiens, UniProt P24941); test: CDK2 homogeneous time-resolved fluorescence (HTRF) kinase assay
Method in brief: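 TR-FRET read-out (665 nm, or 665/615 ratio) of Eu-antibody detection of phospho-4E-BP1 (Thr37/46) ULight peptide. Enzyme 3 nM, ATP 1 mM, peptide 50 nM, 1% DMSO; 60 min reaction at 23 °C after 20 min compound preincubation. IC50 from 11-point half-log titrations, top typically 10 μM.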

[1] = CDK6/CCND, x = IC50 >250 nM, read-out: CDK6/CCND IC50 (>250 nM column)
[2] = CDK4/CCND, x = IC50 >250 nM, read-out: CDK4/CCND IC50 (>250 nM column)
[3] = CDK1/CCNB, x = IC50 >250 nM, read-out: CDK1/CCNB IC50 (>250 nM column)
[4] = CDK2/CCNE, x = IC50 >250 nM, read-out: CDK2/CCNE IC50 (>250 nM column)
[5] = CDK6/CCND, 25-250 nM marked x, read-out: CDK6/CCND IC50 25-250 nM
[6] = CDK1/CCNB, >250 nM marked x, read-out: CDK1/CCNB IC50 >250 nM
[7] = CDK2/CCNE, <25 nM, read-out: CDK2/CCNE IC50 <25 nM
[8] = CDK1/CCNB, x = IC50 25-250 nM, read-out: CDK1/CCNB IC50 (25-250 nM)
[9] = CDK2/CCNE, x = IC50 <25 nM, read-out: CDK2/CCNE IC50 (<25 nM)
[10] = >250 nM, CDK6/CCND, 1 mM ATP, read-out: CDK6/CCND IC50, >250 nM
[11] = >250 nM, CDK4/CCND, read-out: CDK4/CCND IC50, >250 nM
[12] = >250 nM, CDK1/CCNB, read-out: CDK1/CCNB IC50 >250 nM
[13] = 25-250 nM, CDK2/CCNE, read-out: CDK2/CCNE IC50, 25-250 nM
[14] = <25 nM, CDK2/CCNE, read-out: CDK2/CCNE IC50, <25 nM

CDK6/CCND1, sequence (Q00534 whole entry): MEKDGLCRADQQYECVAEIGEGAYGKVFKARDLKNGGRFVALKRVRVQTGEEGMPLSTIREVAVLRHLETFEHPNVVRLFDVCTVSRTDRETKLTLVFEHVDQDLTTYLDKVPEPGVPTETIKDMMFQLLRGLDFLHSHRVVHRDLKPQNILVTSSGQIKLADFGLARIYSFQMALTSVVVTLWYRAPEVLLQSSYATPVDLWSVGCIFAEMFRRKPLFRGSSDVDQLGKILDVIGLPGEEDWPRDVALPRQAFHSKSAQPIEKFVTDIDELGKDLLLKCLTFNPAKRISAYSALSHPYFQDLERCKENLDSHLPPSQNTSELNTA
CDK6/CCND1, sequence (P24385 whole entry partner): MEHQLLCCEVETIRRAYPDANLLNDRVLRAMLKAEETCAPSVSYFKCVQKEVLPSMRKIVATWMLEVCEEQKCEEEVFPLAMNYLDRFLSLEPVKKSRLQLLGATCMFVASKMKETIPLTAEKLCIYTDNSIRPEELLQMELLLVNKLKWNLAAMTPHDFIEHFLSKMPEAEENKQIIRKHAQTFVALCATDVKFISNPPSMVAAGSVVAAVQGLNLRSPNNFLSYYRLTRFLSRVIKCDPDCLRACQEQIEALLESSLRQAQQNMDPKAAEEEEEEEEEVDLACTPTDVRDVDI
CDK1/CCNB1, sequence (P06493 whole entry): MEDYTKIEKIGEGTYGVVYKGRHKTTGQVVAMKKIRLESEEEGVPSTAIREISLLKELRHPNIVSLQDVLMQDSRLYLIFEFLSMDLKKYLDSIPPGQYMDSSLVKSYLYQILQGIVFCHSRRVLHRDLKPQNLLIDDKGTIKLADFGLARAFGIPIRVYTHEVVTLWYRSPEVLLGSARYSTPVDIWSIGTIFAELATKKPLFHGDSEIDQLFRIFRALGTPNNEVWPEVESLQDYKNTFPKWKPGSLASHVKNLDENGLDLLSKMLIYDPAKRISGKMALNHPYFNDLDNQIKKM
CDK1/CCNB1, sequence (P14635 whole entry partner): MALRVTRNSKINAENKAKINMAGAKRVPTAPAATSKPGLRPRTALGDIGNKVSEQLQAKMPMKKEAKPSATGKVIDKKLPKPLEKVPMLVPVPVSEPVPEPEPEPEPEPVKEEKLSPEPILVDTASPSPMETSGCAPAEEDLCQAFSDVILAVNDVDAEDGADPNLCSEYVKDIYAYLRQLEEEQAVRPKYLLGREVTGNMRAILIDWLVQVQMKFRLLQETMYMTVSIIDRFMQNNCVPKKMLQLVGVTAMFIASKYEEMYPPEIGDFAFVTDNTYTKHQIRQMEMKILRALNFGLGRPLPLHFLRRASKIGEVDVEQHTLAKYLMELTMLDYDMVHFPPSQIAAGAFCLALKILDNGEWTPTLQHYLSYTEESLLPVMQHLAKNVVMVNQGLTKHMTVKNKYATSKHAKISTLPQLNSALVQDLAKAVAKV
CDK4/CCND3, sequence (P11802 whole entry): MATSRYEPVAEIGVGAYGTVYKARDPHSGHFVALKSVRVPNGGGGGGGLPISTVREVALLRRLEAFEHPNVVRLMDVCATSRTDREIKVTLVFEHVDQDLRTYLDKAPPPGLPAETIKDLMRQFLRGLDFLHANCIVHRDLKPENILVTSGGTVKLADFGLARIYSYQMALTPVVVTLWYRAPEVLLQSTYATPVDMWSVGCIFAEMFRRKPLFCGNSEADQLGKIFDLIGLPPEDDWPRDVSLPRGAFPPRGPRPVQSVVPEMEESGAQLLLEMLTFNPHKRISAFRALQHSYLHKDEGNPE
CDK4/CCND3, sequence (P30281 whole entry partner): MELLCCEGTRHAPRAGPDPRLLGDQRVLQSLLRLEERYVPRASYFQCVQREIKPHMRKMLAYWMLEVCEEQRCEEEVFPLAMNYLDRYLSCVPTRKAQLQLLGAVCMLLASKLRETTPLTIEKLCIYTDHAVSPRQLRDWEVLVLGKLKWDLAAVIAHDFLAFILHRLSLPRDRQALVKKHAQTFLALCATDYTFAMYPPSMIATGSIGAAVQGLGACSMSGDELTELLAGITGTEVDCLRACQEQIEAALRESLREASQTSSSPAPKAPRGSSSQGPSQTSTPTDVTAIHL

- IC50 (CDK6/CCND1; [1]): > 250 nM
- IC50 (CDK4/CCND3; [2]): > 250 nM
- IC50 (CDK1/CCNB1; [3]): > 250 nM
- IC50 (CDK2/CCNE1; [4]): > 250 nM
Structure (SMILES): CNc1ccncc1C#Cc1nccc2cnc(Nc3ccc(S(C)(=O)=O)cc3)cc12 [Ex 547, 5-((4-(methylamino)pyridin-3-yl)ethynyl)-N-(4-(methylsulfonyl)phenyl)-2,6-naphthyridin-3-amine]

- IC50 (CDK6/CCND1; [5]): 25 to 250 nM
- IC50 (CDK4/CCND3; CDK4/CCND, <25 nM, read-out: CDK4/CCND IC50 <25 nM): < 25 nM
- IC50 (CDK1/CCNB1; [6]): > 250 nM
- IC50 (CDK2/CCNE1; [7]): < 25 nM
Structure (SMILES): CS(=O)(=O)N1CCC(Nc2cc3c(C#Cc4ccc(C#N)cc4)nccc3cn2)CC1 [Ex 251, 4-((7-((1-(methylsulfonyl)piperidin-4-yl)amino)-2,6-naphthyridin-1-yl)ethynyl)benzonitrile]

- IC50 (CDK6/CCND1; [1]): > 250 nM
- IC50 (CDK4/CCND3; [2]): > 250 nM
- IC50 (CDK1/CCNB1; [8]): 25 to 250 nM
- IC50 (CDK2/CCNE1; [9]): < 25 nM
Structure (SMILES): CC(C)S(=O)(=O)c1ccc(Nc2cc3c(C#Cc4ccc5c(c4)NC(=O)C54CC4)nccc3cn2)cc1 [Ex 393, 6'-((7-((4-(isopropylsulfonyl)phenyl)amino)-2,6-naphthyridin-1-yl)ethynyl)spiro[cyclopropane-1,3'-indolin]-2'-one]

- IC50 (CDK6/CCND1; [1]): > 250 nM
- IC50 (CDK4/CCND3; [2]): > 250 nM
- IC50 (CDK1/CCNB1; [3]): > 250 nM
- IC50 (CDK2/CCNE1; [4]): > 250 nM
Structure (SMILES): CC(C)(O)Cn1cnc2ccc(C#Cc3nccc4cnc(Nc5ccc(S(C)(=O)=O)cc5)cc34)cc21 [Ex 543, 2-methyl-1-(6-((7-((4-(methylsulfonyl)phenyl)amino)-2,6-naphthyridin-1-yl)ethynyl)-1H-benzo[d]imidazol-1-yl)propan-2-ol]

- IC50 (CDK6/CCND1; [5]): 25 to 250 nM
- IC50 (CDK4/CCND3; CDK4/CCND, 25-250 nM marked x, read-out: CDK4/CCND IC50 25-250 nM): 25 to 250 nM
- IC50 (CDK1/CCNB1; [6]): > 250 nM
- IC50 (CDK2/CCNE1; [7]): < 25 nM
Structure (SMILES): Cc1c(-c2nccc3cnc(Nc4ccc(S(C)(=O)=O)cc4)cc23)ccc2nn(CC(N)=O)cc12 [Ex 250, 2-(4-methyl-5-(7-((4-(methylsulfonyl)phenyl)amino)-2,6-naphthyridin-1-yl)-2H-indazol-2-yl)acetamide]

- IC50 (CDK6/CCND1; [1]): > 250 nM
- IC50 (CDK4/CCND3; [2]): > 250 nM
- IC50 (CDK1/CCNB1; [8]): 25 to 250 nM
- IC50 (CDK2/CCNE1; [9]): < 25 nM
Structure (SMILES): O=C1Nc2cc(C#Cc3nccc4cnc(Nc5ccc(S(=O)(=O)C6CCC6)cc5)cc34)ccc2C12CC2 [Ex 394, 6'-((7-((4-(cyclobutylsulfonyl)phenyl)amino)-2,6-naphthyridin-1-yl)ethynyl)spiro[cyclopropane-1,3'-indolin]-2'-one]

- IC50 (CDK6/CCND1; [1]): > 250 nM
- IC50 (CDK4/CCND3; [2]): > 250 nM
- IC50 (CDK1/CCNB1; [3]): > 250 nM
- IC50 (CDK2/CCNE1; [9]): < 25 nM
Structure (SMILES): CS(=O)(=O)c1ccc(Nc2cc3c(C#Cc4ccc(CCO)cc4)nccc3cn2)cc1 [Ex 652, 2-(4-((7-((4-(methylsulfonyl)phenyl)amino)-2,6-naphthyridin-1-yl)ethynyl)phenyl)ethan-1-ol]

- IC50 (CDK6/CCND1; [10]): > 250 nM
- IC50 (CDK4/CCND3; [11]): > 250 nM
- IC50 (CDK1/CCNB1; [12]): > 250 nM
- IC50 (CDK2/CCNE1; [13]): 25 to 250 nM
Structure (SMILES): COc1ccc(NS(=O)(=O)c2ccc(Nc3cc4c(-c5ccc6c(cnn6CC(O)(C(F)(F)F)C(F)(F)F)c5C)nccc4cn3)cc2)cc1 [Ex 718, N-(4-methoxyphenyl)-4-((5-(4-methyl-1-(3,3,3-trifluoro-2-hydroxy-2-(trifluoromethyl)propyl)-1H-indazol-5-yl)-2,6-naphthyridin-3-yl)amino)benzenesulfonamide]

- IC50 (CDK6/CCND1; [10]): > 250 nM
- IC50 (CDK4/CCND3; [11]): > 250 nM
- IC50 (CDK1/CCNB1; [12]): > 250 nM
- IC50 (CDK2/CCNE1; [14]): < 25 nM
Structure (SMILES): Cc1cc(C)nc(NS(=O)(=O)c2ccc(Nc3cc4c(C#Cc5ccc(C#N)cc5)nccc4cn3)cc2)n1 [Ex 936, 4-((5-((4-cyanophenyl)ethynyl)-2,6-naphthyridin-3-yl)amino)-N-(4,6-dimethylpyrimidin-2-yl)benzenesulfonamide]

- IC50 (CDK6/CCND1; [10]): > 250 nM
- IC50 (CDK4/CCND3; 25-250 nM, CDK4/CCND, read-out: CDK4/CCND IC50, 25-250 nM): 25 to 250 nM
- IC50 (CDK1/CCNB1; [12]): > 250 nM
- IC50 (CDK2/CCNE1; [14]): < 25 nM
Structure (SMILES): Cc1c(-c2nccc3cnc(Nc4ccc(S(=N)(=O)NC5CC5)cc4)cc23)ccc2c1cnn2CC(O)(C(F)(F)F)C(F)(F)F (single isomer, unassigned) [Ex 681, N-cyclopropyl-4-((5-(4-methyl-1-(3,3,3-trifluoro-2-hydroxy-2-(trifluoromethyl)propyl)-1H-indazol-5-yl)-2,6-naphthyridin-3-yl)amino)benzenesulfonimidamide]

- IC50 (CDK6/CCND1; [10]): > 250 nM
- IC50 (CDK4/CCND3; [11]): > 250 nM
- IC50 (CDK1/CCNB1; [12]): > 250 nM
- IC50 (CDK2/CCNE1; [13]): 25 to 250 nM
Structure (SMILES): Cc1nc[nH]c1C#Cc1nccc2cnc(Nc3ccc(S(C)(=O)=O)cc3)cc12 [Ex 883, 5-((4-methyl-1H-imidazol-5-yl)ethynyl)-N-(4-(methylsulfonyl)phenyl)-2,6-naphthyridin-3-amine]

- IC50 (CDK6/CCND1; [1]): > 250 nM
- IC50 (CDK4/CCND3; [2]): > 250 nM
- IC50 (CDK1/CCNB1; [3]): > 250 nM
- IC50 (CDK2/CCNE1; [9]): < 25 nM
Structure (SMILES): CS(=O)(=O)c1ccc(Nc2cc3c(C#Cc4c(N)ncnc4Cl)nccc3cn2)cc1 [Example 510, 5-((4-amino-6-chloropyrimidin-5-yl)ethynyl)-N-(4-(methylsulfonyl)phenyl)-2,6-naphthyridin-3-amine]

- IC50 (CDK6/CCND1; [10]): > 250 nM
- IC50 (CDK4/CCND3; [11]): > 250 nM
- IC50 (CDK1/CCNB1; [12]): > 250 nM
- IC50 (CDK2/CCNE1; [13]): 25 to 250 nM
Structure (SMILES): Cc1c(-c2nccc3cnc(Nc4ccc(S(C)(=O)=O)c(N5CCN(C)CC5)c4)cc23)ccc2c1cnn2CC(C)(C)O [Ex 931, 2-methyl-1-(4-methyl-5-(7-((3-(4-methylpiperazin-1-yl)-4-(methylsulfonyl)phenyl)amino)-2,6-naphthyridin-1-yl)-1H-indazol-1-yl)propan-2-ol]

- IC50 (CDK6/CCND1; [1]): > 250 nM
- IC50 (CDK4/CCND3; [2]): > 250 nM
- IC50 (CDK1/CCNB1; [3]): > 250 nM
- IC50 (CDK2/CCNE1; CDK2/CCNE, x = IC50 25-250 nM, read-out: CDK2/CCNE IC50 (25-250 nM)): 25 to 250 nM
Structure (SMILES): COC(=O)c1cc2ccc(C#Cc3nccc4cnc(Nc5ccc(S(C)(=O)=O)cc5)cc34)cc2[nH]1 [Example 594, methyl 6-((7-((4-(methylsulfonyl)phenyl)amino)-2,6-naphthyridin-1-yl)ethynyl)-1H-indole-2-carboxylate]

- IC50 (CDK6/CCND1; 1 nM CDK6/CCND1, 1 mM ATP, read-out: CDK6/CCND IC50 <25 nM): < 25 nM
- IC50 (CDK4/CCND3; 1.5 nM CDK4/CCND3, 1 mM ATP, read-out: CDK4/CCND IC50 <25 nM): < 25 nM
- IC50 (CDK1/CCNB1; 0.5 nM CDK1/CCNB1, 1 mM ATP, read-out: CDK1/CCNB IC50 25-250 nM): 25 to 250 nM
- IC50 (CDK2/CCNE1; 3 nM CDK2/CCNE1, 1 mM ATP, read-out: CDK2/CCNE IC50 <25 nM): < 25 nM
Structure (SMILES): CS(=O)(=O)c1ccc(Nc2ncc3ccc(C#N)c(N4CCC(C#N)CC4)c3n2)cc1 [Example 957, 8-(4-cyanopiperidin-1-yl)-2-((4-(methylsulfonyl)phenyl)amino) quinazoline-7-carbonitrile]

- IC50 (CDK6/CCND1; CDK6/CCND, >250 nM marked x, read-out: CDK6/CCND IC50 >250 nM): > 250 nM
- IC50 (CDK4/CCND3; CDK4/CCND, >250 nM marked x, read-out: CDK4/CCND IC50 >250 nM): > 250 nM
- IC50 (CDK1/CCNB1; CDK1/CCNB, 25-250 nM marked x, read-out: CDK1/CCNB IC50 25-250 nM): 25 to 250 nM
- IC50 (CDK2/CCNE1; [7]): < 25 nM
Structure (SMILES): CCC1(CC)C(=O)Nc2cc(C#Cc3nccc4cnc(Nc5ccc(S(=N)(=O)C6CC6)cc5)cc34)ccc21 (single isomer, unassigned) [Ex 339, 6-((7-((4-(cyclopropanesulfonimidoyl)phenyl)amino)-2,6-naphthyridin-1-yl)ethynyl)-3,3-diethylindolin-2-one]

- IC50 (CDK6/CCND1; [1]): > 250 nM
- IC50 (CDK4/CCND3; [2]): > 250 nM
- IC50 (CDK1/CCNB1; [3]): > 250 nM
- IC50 (CDK2/CCNE1; [9]): < 25 nM
Structure (SMILES): CS(=O)(=O)c1ccc(Nc2cc3c(C#Cc4cn[nH]c4)nccc3cn2)cc1 [Ex 664, 5-((1H-pyrazol-4-yl)ethynyl)-N-(4-(methylsulfonyl)phenyl)-2,6-naphthyridin-3-amine]
